Experimental data published in patent publication US4468511A, “C-20- And C-23-Modified macrolide derivatives” (Eli Lilly and Company, priority 1983, dated 1984).
≈ marks a conversion by molar mass, not a printed value. Like-named read-outs stand apart in the source and are kept apart here.

Columns and labels:
[1] = test system: Streptococcus pyogenes C203; experiment: Protection of mice experimentally infected with S. pyogenes C203; assay type: in vivo; settings: mg/kg × 2, doses given 1 and 4 hours postinfection
Protocol: Some of the derivatives of this invention have shown in vivo antimicrobial activity against experimentally-induced infections in laboratory animals. When two doses of test compound were administered to mice experimentally infected with S. pyogenes C203, the activity observed was measured as an ED50 value [effective dose in mg/kg to protect 50% of the test animals: see Warren Wick, et al., J. Bacteriol. 81, 233-235 (1961)].

[2] = test system: Staphylococcus aureus S13E; experiment: microbe, parasite or virus in culture; assay type: cell-based
Protocol: (§1) The MIC's in Table II were determined by standard agar-dilution assays. The MIC's in Table III were obtained using a conventional broth-dilution microtiter test.

[3] = test system: Staphylococcus epidermidis EPI1; experiment: microbe, parasite or virus in culture; assay type: cell-based; settings: Staphylococcus epidermidis, EPI1
Protocol: as §1

[4] = test system: Staphylococcus aureus X400; experiment: MIC, standard agar-dilution assay; assay type: cell-based
Protocol: as §1

[5] = test system: Staphylococcus epidermidis EPI2; experiment: MIC, standard agar-dilution assay; assay type: cell-based; settings: Staphylococcus epidermidis, EPI2
Protocol: as §1

[6] = test system: Haemophilus influenzae 76; experiment: MIC, standard agar-dilution assay; assay type: cell-based; settings: agar-dilution; Haemophilus influenzae 76, Ampicillin-resistant strain; read-out: MIC
Protocol: as §1

[7] = test system: Haemophilus influenzae C.L.; experiment: MIC, standard agar-dilution assay; assay type: cell-based
Protocol: as §1

[8] = test system: Pasteurella multocida 17E; experiment: MIC, conventional broth-dilution microtiter test; assay type: cell-based; settings: broth-dilution microtiter; Pasteurella multocida 17E, Bovine isolate; read-out: MIC
Method in brief: (§2)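 Two formats were used. Broth dilution in microtiter plates served for Pasteurella and Mycoplasma, while agar dilution served for Klebsiella.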

[9] = test system: Streptococcus sp. 80; experiment: MIC, conventional broth-dilution microtiter test; assay type: cell-based; settings: Streptococcus, SP.80
Protocol: (§3) Certain of the derivatives are active against some gram-negative bacteria, such as Pasteurella species. The MIC's in Table II were determined by standard agar-dilution assays. The MIC's in Table III were obtained using a conventional broth-dilution microtiter test.

[10] = test system: Mycoplasma synoviae; experiment: MIC, conventional broth-dilution microtiter test; assay type: cell-based; settings: Mycoplasmopsis synoviae; broth-dilution microtiter; Mycoplasma synoviae; read-out: MIC
Method in brief: (§4)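 Agar plates containing graded compound levels gave the Klebsiella value. Graded broth dilutions in microtiter plates gave the Pasteurella and Mycoplasma values.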

[11] = test system: Mycoplasma hyorhinis; experiment: MIC, conventional broth-dilution microtiter test; assay type: cell-based; settings: broth-dilution microtiter; Mycoplasma hyorhinis; read-out: MIC
Method in brief: as §4

[12] = test system: Pasteurella multocida 22A; experiment: MIC, conventional broth-dilution microtiter test; assay type: cell-based
Method in brief: as §2

[13] = test system: Pasteurella multocida 60A; experiment: MIC, conventional broth-dilution microtiter test; assay type: cell-based; settings: broth-dilution microtiter; Pasteurella multocida 60A, Avian isolate; read-out: MIC
Method in brief: as §2

[14] = test system: Pasteurella multocida 40G; experiment: MIC, conventional broth-dilution microtiter test; assay type: cell-based
Method in brief: as §2

[15] = test system: Mycoplasma gallisepticum 34159; experiment: MIC, conventional broth-dilution microtiter test; assay type: cell-based; settings: Mycoplasmoides gallisepticum
Method in brief: as §2

[16] = test system: Pasteurella multocida 68C; experiment: MIC, conventional broth-dilution microtiter test; assay type: cell-based
Method in brief: as §2

[17] = test system: Pasteurella hemolytica 22C; experiment: MIC, conventional broth-dilution microtiter test; assay type: cell-based; settings: broth-dilution microtiter; Pasteurella hemolytica 22C; read-out: MIC
Method in brief: as §2

[18] = test system: Staphylococcus aureus; experiment: MIC, conventional broth-dilution microtiter test; assay type: cell-based
Protocol: as §3

[19] = test system: Mycoplasma gallisepticum; experiment: MIC, conventional broth-dilution microtiter test; assay type: cell-based; settings: Mycoplasmoides gallisepticum
Method in brief: as §2

[20] = test system: Pasteurella hemolytica 23C; experiment: MIC, conventional broth-dilution microtiter test; assay type: cell-based; settings: broth-dilution microtiter; Pasteurella hemolytica 23C; read-out: MIC
Method in brief: as §2

[21] = test system: Mycoplasma gallisepticum 41313; experiment: MIC, conventional broth-dilution microtiter test; assay type: cell-based; settings: Mycoplasmoides gallisepticum
Method in brief: as §2

[22] = test system: Pasteurella hemolytica 41D; experiment: MIC, conventional broth-dilution microtiter test; assay type: cell-based; settings: broth-dilution microtiter; Pasteurella hemolytica 41D; read-out: MIC
Method in brief: as §2

[23] = test system: Streptococcus Group D X66; experiment: MIC, standard agar-dilution assay; assay type: cell-based; settings: agar-dilution; Streptococcus Group D X66; read-out: MIC
Protocol: as §3

[24] = test system: Staphylococcus aureus V41; experiment: MIC, standard agar-dilution assay; assay type: cell-based; settings: Staphylococcus aureus, V41
Protocol: as §3

[25] = test system: Klebsiella pneumoniae X26; experiment: MIC, standard agar-dilution assay; assay type: cell-based; settings: Klebsiella pneumoniae, X26
Method in brief: as §4

[26] = test system: Streptococcus pyogenes 9960; experiment: MIC, standard agar-dilution assay; assay type: cell-based; settings: agar-dilution, Streptococcus 9960, read-out: MIC
Protocol: as §3

[27] = test system: Staphylococcus aureus X1.1; experiment: MIC, standard agar-dilution assay; assay type: cell-based; settings: Staphylococcus aureus, X1.1
Method in brief: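 A standard agar-dilution assay was used to test compounds against the Staphylococcus aureus isolate X1.1. Bacterial growth on agar with different compound concentrations was assessed, and the minimum inhibitory concentration was recorded in ug/mL.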

[28] = test system: Klebsiella pneumoniae KAE; experiment: MIC, standard agar-dilution assay; assay type: cell-based; settings: agar-dilution; Klebsiella pneumoniae KAE; read-out: MIC
Method in brief: as §2

[29] = test system: Escherichia coli TEM; experiment: MIC, standard agar-dilution assay; assay type: cell-based; settings: agar-dilution; Escherichia coli TEM; read-out: MIC
Method in brief: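 Antibacterial activity toward the gram-negative organism Escherichia coli was assessed by conventional agar dilution. The MIC, reported in ug/mL, is the minimum compound concentration on agar that prevents growth.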

[30] = test system: Streptococcus pneumoniae Park I; experiment: MIC, standard agar-dilution assay; assay type: cell-based; settings: Streptococcus pneumoniae
Protocol: as §3

[31] = test system: Streptococcus pyogenes C203; experiment: MIC, standard agar-dilution assay; assay type: cell-based; settings: agar-dilution; Streptococcus pyogenes C203; read-out: MIC
Protocol: as §3

[32] = test system: Escherichia coli EC14; experiment: MIC, standard agar-dilution assay; assay type: cell-based; settings: agar-dilution; Escherichia coli EC14; read-out: MIC
Protocol: as §3

[33] = C203, mice, oral, read-out: ED50 Oral
[34] = C203, sc, mice, subcutaneous, read-out: ED50 Subcutaneous

Compound	ED50 [1, 33]	ED50 [1, 34]	MIC [2]	MIC [3]	MIC [5]	MIC [6]	MIC [8]	MIC [9]	MIC [10]	MIC [11]	MIC [13]	MIC [17]	MIC [19]	MIC [20]	MIC [22]	MIC [23]	MIC [24]	MIC [25]	MIC [26]	MIC [27]	other results
CCC1CC(C)C(=O)C=CC(C)=CC(COc2cccc(N(C)C)c2)C(CC)OC(=O)CC(O)C(C)C1OC1OC(C)C(O)C(N(C)C)C1O (centres unmarked) [Compound 44, 23-O-(m-Dimethylaminophenyl)-20-deoxy-20-dihydro-OMT]	> 50 mg/kg	> 10 mg/kg	1 µg/mL (≈ 1.42 µM)	1 µg/mL (≈ 1.42 µM)	0.5 µg/mL (≈ 0.711 µM)	16 µg/mL (≈ 22.8 µM)	50 µg/mL (≈ 71.1 µM)	3.12 µg/mL (≈ 4.44 µM)	12.5 µg/mL (≈ 17.8 µM)	50 µg/mL (≈ 71.1 µM)	25 µg/mL (≈ 35.6 µM)	> 50 µg/mL	3.12 µg/mL (≈ 4.44 µM)	> 50 µg/mL	> 50 µg/mL	2 µg/mL (≈ 2.85 µM)	1 µg/mL (≈ 1.42 µM)	32 µg/mL (≈ 45.5 µM)	2 µg/mL (≈ 2.85 µM)	1 µg/mL (≈ 1.42 µM)	MIC ([4]; agar-dilution, Staphylococcus aureus X400, Methicillin-resistant strain, read-out: MIC): 2 µg/mL (≈ 2.85 µM); MIC ([7]; agar-dilution, Haemophilus influenzae C.L., Ampicillin-sensitive strain, read-out: MIC): 16 µg/mL (≈ 22.8 µM); MIC ([12]; broth-dilution microtiter, Pasteurella multocida 22A, read-out: MIC): 50 µg/mL (≈ 71.1 µM); MIC ([14]; broth-dilution microtiter, Pasteurella multocida 40G, read-out: MIC): 25 µg/mL (≈ 35.6 µM); MIC ([15]; broth-dilution microtiter, Mycoplasma gallisepticum 34159, Resistant strain, read-out: MIC): 12.5 µg/mL (≈ 17.8 µM); MIC ([16]; broth-dilution microtiter, Pasteurella multocida 68C, read-out: MIC): 25 µg/mL (≈ 35.6 µM); MIC [18]: 1.56 µg/mL (≈ 2.22 µM); MIC ([21]; broth-dilution microtiter, Mycoplasma gallisepticum 41313, Resistant strain, read-out: MIC): 12.5 µg/mL (≈ 17.8 µM); MIC [28]: > 128 µg/mL; MIC [29]: > 128 µg/mL; MIC [30]: 0.5 µg/mL (≈ 0.711 µM); MIC [31]: 4 µg/mL (≈ 5.69 µM); MIC [32]: > 128 µg/mL
CCC1CC(C)C(=O)C=CC(C)=CC(COc2cccc(OC)c2OC)C(CC)OC(=O)CC(O)C(C)C1OC1OC(C)C(O)C(N(C)C)C1O (centres unmarked) [Compound 47, 23-O-(2,3-Dimethoxyphenyl)-20-deoxy-20-dihydro-OMT]	> 50 mg/kg	> 10 mg/kg	0.25 µg/mL (≈ 0.347 µM)	0.25 µg/mL (≈ 0.347 µM)	0.25 µg/mL (≈ 0.347 µM)	16 µg/mL (≈ 22.2 µM)	25 µg/mL (≈ 34.7 µM)	1.56 µg/mL (≈ 2.17 µM)	6.25 µg/mL (≈ 8.68 µM)	25 µg/mL (≈ 34.7 µM)	25 µg/mL (≈ 34.7 µM)	25 µg/mL (≈ 34.7 µM)	1.56 µg/mL (≈ 2.17 µM)	25 µg/mL (≈ 34.7 µM)	25 µg/mL (≈ 34.7 µM)	0.25 µg/mL (≈ 0.347 µM)	0.25 µg/mL (≈ 0.347 µM)	4 µg/mL (≈ 5.56 µM)	0.25 µg/mL (≈ 0.347 µM)	0.25 µg/mL (≈ 0.347 µM)	MIC ([4]; Staphylococcus aureus, X400): 0.25 µg/mL (≈ 0.347 µM); MIC ([7]; Haemophilus influenzae): 32 µg/mL (≈ 44.4 µM); MIC ([12]; Pasteurella multocida, 22A): 50 µg/mL (≈ 69.5 µM); MIC ([14]; Pasteurella multocida, 40G): 12.5 µg/mL (≈ 17.4 µM); MIC [15]; 34159: 50 µg/mL (≈ 69.5 µM); MIC ([16]; Pasteurella multocida, 68C): 12.5 µg/mL (≈ 17.4 µM); MIC ([18]; broth-dilution microtiter, read-out: MIC): 3.12 µg/mL (≈ 4.33 µM); MIC [21]; 41313: 50 µg/mL (≈ 69.5 µM); MIC [28]: > 128 µg/mL; MIC [29]: 128 µg/mL (≈ 178 µM); MIC [31]: 0.25 µg/mL (≈ 0.347 µM); MIC [32]: > 128 µg/mL
